Usually MIC stands for the least concentration at which growth counts as inhibited.

Molecules are shown by their SMILES. Several values for one entry are separate records, joined by “and”; a condition that tells them apart may be missing. Identical values can stand only once. Like-named read-outs stand apart in the source and are kept apart here.

Consider three molecules from US10287616B2, “Label free biosensors, gram-negative bacteria detection, and real-time and end point determination of antibiotic effects” (priority 2015, dated 2019).

Test [1] concerns E. coli W1485. Particulars: for ΔF (Hz): 30 mg/L antibiotic added after E. coli attached to sensor; for ΔF (Hz) / ΔR (Ω) / ΔR/R0 (%): FIG. 25A; for ΔR (Ω) / ΔR/R0 (%): 30 mg/L antibiotic added after E. coli attached; for frequency after antibiotic addition: 2 hour period after addition, from 350, 350 and 370 Hz before addition; for reduction of binding to (LPS activity, real time analysis): 1 hour time point. As for the experimental part: (§1) The gold QCM electrode consisted of a thin AT-cut quartz crystal wafer with vapor deposited gold electrode on each side (10 MHz, non-polished with 1000 A gold, geometric area is 0.22 cm2, International Crystal Company). For all QCM test, the gold electrode was mounted on the side of a KeI-F cell chamber. Frequency monitoring was performed using a Maxtek RQCM quartz crystal microbalance research instrument. Baseline was recorded in 1 mL of 10 mM HEPES buffer containing 1 mM Ca^2+ and 1 mM Mn^2+. Each of the bacterial samples to be analyzed was then added into the detection sensor cell after stabilization of resonance frequency (shift less than 1 Hz·min-1). A small magnetic stir bar was used to increase the mass transfer through convection. The frequency changes (ΔF) of the QCM were monitored using a network/spectrum/impedance analyzer (Agilent 4395A) controlled by a PC via an Intel card.
For the real time measurements, Con A sensor was mounted in a biosensor cell containing 1 mL of 10 mM HEPES buffer (pH 7.4). Real time QCM measurements were obtained for each experimental step. First, 1 μL of 5×10^8 cells/mL E. coli obtained from the stationary phase was added into the biosensor cell. When frequency reached a constant value, it was washed with 1 mL of 10 mM HEPES buffer to remove the unbound E. coli. […] The frequency changes vs time and the damping resistance vs time were recorded by QCM.
Different types of antibiotics have differing abilities to alter the LPS properties and subsequent reduction in their binding. This can be used as an indicator for the antibiotic effects for killing the bacteria or inhibiting their growth. The biosensor ability to quantitatively measure these parameters real time was tested. For that purpose, the Con A sensor was exposed to 1 μL of 5×10^8 cells/mL E. coli to capture the bacteria via Con A-LPS binding. The unbound E. coli was removed by washing with 1 mL of 10 mM HEPES buffer.

For test [2], the system named is E. coli W1485. The conditions noted are these: for ΔR (Ω) / ΔR/R0 (%): 3 hours; for ΔF (Hz): FIG. 26. As for the experimental part:
Experiments were also performed to study the concentration of the antibiotics and the length of the incubation time of antibiotics for their ability to kill or inhibit the growth of the bacteria. Different concentrations of each antibiotic were added to 5×10^8 cells/mL E. coli respectively, and then incubated at 37° C. and 280 rpm on the shaker. After 3 hours of incubation, 1 μL of antibiotic treated E. coli culture was added to the Con A sensor cell containing 1 mL of 10 mM HEPES buffer (pH 7.4) for QCM measurements, respectively. […] 1 μL of each antibiotic treated E. coli was taken at different incubation times (i.e., 0, 1, 2, 3 hours) and was added into the Con A senor cell containing 1 mL of 10 mM HEPES buffer (pH 7.4) for QCM measurements.
Because antibiotics from different classes have different mechanisms of action and antibiotic effects on bacterial morphology and viability are concentration and time dependent, it was hypothesized that the ability of antibiotics to kill the bacteria or inhibit its growth may be class and concentration dependent, which will affect the interaction between the LPS and Con A sensor. To further study the effects of concentration and length of incubation time on the bactericidal activities of antibiotics, different concentration of antibiotics were added into the broth containing E. coli and incubated for different lengths of times. […] FIGS. 26D through 26F show the histogram of ΔF or ΔR changes vs antibiotics with different concentrations that are again correlated to each other with ceftriaxone showing consistent increase in resistance with increasing its concentration. This is probably due to more and more cell lysis, thereby intensifying the fluidic environment.
To further compare the effect of concentrations on the bactericidal activities of the antibiotics, the binding kinetics between Con A sensor and E. coli were studied. The binding between Con A sensor and E. coli can be described by eq 2. [Con Aattached to gold]+[E. coli]→[E. coli/Con Aattached to gold] (2)
The amount of the complex E. coli/Con A formed at time t after the injection is given by eqs 3 and […], where ΔMmax is the maximum binding amount of E. coli/Con A, ΔM is the measured binding amount, and t is the time after injection. τ is the relaxation time associated with E. coli binding, which is calculated from curve fittings of the ΔF during the binding process. A higher τ value means a longer binding time is required between the Con A and E. coli.

Test [3] relates to E. coli W1485. Particulars: for bacterial (LPS) binding reduced to, frequency shift normalized to control / ΔR (Ω) / ΔR/R0 (%): 18 hours. As for the experimental part: as §1
In the end point measurement, four samples containing 2×10^5 cells/mL of E. coli obtained from log phase in fresh LB culture were prepared. […] The four samples were incubated for 18 hours, 37° C., 280 rpm on an orbital environmental shaker. Finally, 1 μL of the E. coli culture from the each prepared sample was introduced to the Con A biosensor in 1 mL of 10 mM HEPES buffer (pH 7.4) for QCM and electrochemical biosensor measurements, respectively. The sample without addition of any antibiotic was used as control.
The concentrations used were based on the literature and current clinically used dosages. The sample without any antibiotic was used as a control. As mentioned above, E. coli W1485 was used as the model Gram-negative bacterial analyte. E. coli W1485 is a “semirough” bacterial strain in which the intact LPS core is capped by a single O-antigen subunit consisting of glucose, N-acetylglucosamine, galactose, and rhamnose in the ratio 1.8:1.0:0.7:0.6, which has been confirmed by the sodium dodecyl sulfate polyacrylamide gel electrophoresis (SDS-PAGE) method. Con A binds specifically at α-D-mannosyl and α-D-glucosyl residues (two hexoses differing only by the alcohol on carbon 2) in the terminal position of ramified structures from β-glycans (reach in α-mannose, or hybrid and biantennary glycanes complexes).
Here the QCM frequency shift is because of the mass loading on the QCM surface due to bacterial adhesion and the change of damping resistance is a result of increasing softness of the interface which causes the damping of the oscillation wave.

The next test deals with E. coli. The conditions noted are these: cited from earlier work; for Previously Reported Minimum Inhibitory Concentration (MIC, mg/L): different strains.
[4] abbreviates: E. coli binding to Con A sensor after 1 mg/L antibiotic.
[5] abbreviates: E. coli binding to Con A sensor after 10 mg/L antibiotic.
[6] abbreviates: E. coli binding to Con A sensor after 30 mg/L antibiotic.

As for `CO/N=C(\C(=O)N[C@@H]1C(=O)N2C(C(=O)O)=C(CSc3nc(=O)c(=O)[nH]n3C)CS[C@H]12)c1csc(N)n1` [ceftriaxone], the “ΔF (Hz)” value in the test on E. coli W1485 [1] is given as −25 Hz; with E. coli W1485 [3] (log phase E. coli incubated 18 hours, 37° C. with 0.1 mg/L antibiotic, FIG. 24A), 87 Hz. Besides, the “ΔR (Ω)” value in the test with E. coli W1485 [1] is −2.2 Ω; in the test with E. coli W1485 [2] (1 mg/L antibiotic), 16 Ω; in the test with E. coli W1485 [2] (10 mg/L antibiotic), 16.5 Ω; in the test with E. coli W1485 [2] (30 mg/L antibiotic), 18 Ω; in the test on E. coli W1485 [3] (0.1 mg/L antibiotic, FIG. 24A), 6 Ω. The “ΔR/R0 (%)” value with E. coli W1485 [1] is recorded as −0.7%; in the test on E. coli W1485 [2] (1 mg/L antibiotic), 5.2%; in the test with E. coli W1485 [2] (10 mg/L antibiotic), 5.4%; in the test on E. coli W1485 [2] (30 mg/L antibiotic), 5.8%; in the test with E. coli W1485 [3] (0.1 mg/L antibiotic, FIG. 24A), 2.0%. Moreover, the “frequency after antibiotic addition” value in the test with E. coli W1485 [1] (30 mg/L) was 325 Hz. Besides, the “decrease in frequency (fold of value before antibiotic)” value in the test with E. coli W1485 [1] (30 mg/L, 2 hour period after antibiotic addition) is reported as 0.93 fold. The “reduction of binding to (LPS activity, real time analysis)” value (“reduction of binding” for short) was 93% in the test with E. coli W1485 [1] (30 mg/L) and 93% in the test with E. coli W1485 [1] (30 mg/L, listed as Ceftriaxone). The figures for the “relaxation time τ” value with E. coli W1485 [2] (setting [4]), with E. coli W1485 [2] (setting [5]) and in the test with E. coli W1485 [2] (setting [6]) were 15.5 min, 18.4 min and 22.5 min, respectively. The “bacterial (LPS) binding reduced to, frequency shift normalized to control” value is given as 27% with E. coli W1485 [3] (0.1 mg/L antibiotic) and 27% with E. coli W1485 [3] (0.1 mg/L antibiotic, listed as Ceftriaxone). Besides, the values for the MIC in the test on E. coli (E. coli (47)) and with E. coli (E. coli (305)) were 0.0125 to 25 µg/mL and 0.06 to 8 µg/mL, respectively. Also, the “Previously Reported Minimum Inhibitory Concentration (MIC, mg/L)” value with E. coli was 0.024 to 0.195 mg/L.

`CN(C)[C@@H]1C(O)=C(C(N)=O)C(=O)[C@@]2(O)C(O)=C3C(=O)c4c(O)cccc4[C@@](C)(O)[C@H]3C[C@@H]12` [tetracycline]: the “ΔF (Hz)” value is −20 Hz in the test with E. coli W1485 [1]; 200 Hz and 212 Hz with E. coli W1485 [2] (pretreated 3 hours with 10 mg/L antibiotic); 160 Hz with E. coli W1485 [2] (pretreated 3 hours with 30 mg/L antibiotic); 260 Hz and 262 Hz with E. coli W1485 [2] (stationary phase E. coli pretreated 3 hours with 1 mg/L antibiotic). Moreover, the “ΔR (Ω)” value with E. coli W1485 [1] is listed as −2.0 Ω; with E. coli W1485 [2] (1 mg/L antibiotic), 16.3 Ω; in the test with E. coli W1485 [2] (10 mg/L antibiotic), 17.2 Ω; in the test with E. coli W1485 [2] (30 mg/L antibiotic), 14.5 Ω; with E. coli W1485 [3] (10 mg/L antibiotic, FIG. 24A) it was 7.2 Ω. Also, the “ΔR/R0 (%)” value was −0.6% in the test on E. coli W1485 [1]; 5.3% in the test with E. coli W1485 [2] (1 mg/L antibiotic); 5.6% with E. coli W1485 [2] (10 mg/L antibiotic); 4.7% in the test on E. coli W1485 [2] (30 mg/L antibiotic); 2.3% in the test with E. coli W1485 [3] (10 mg/L antibiotic, FIG. 24A). The “frequency after antibiotic addition” value in the test on E. coli W1485 [1] (30 mg/L) is on record as 350 Hz. The “reduction of binding” value in the test on E. coli W1485 [1] (30 mg/L) was found to be 95%; in the test on E. coli W1485 [1] (30 mg/L, listed as Tetracycline), 95%.

`O=C(O)c1cn(C2CC2)c2cc(N3CCNCC3)c(F)cc2c1=O` [ciprofloxacin]: the “ΔR (Ω)” value is −2.0 Ω in the test on E. coli W1485 [1]; 14.5 Ω in the test with E. coli W1485 [2] (1 mg/L antibiotic); 10.5 Ω with E. coli W1485 [2] (10 mg/L antibiotic); 10.6 Ω in the test on E. coli W1485 [2] (30 mg/L antibiotic); 8 Ω in the test on E. coli W1485 [3] (0.1 mg/L antibiotic, FIG. 24A). Besides, the “ΔR/R0 (%)” value in the test with E. coli W1485 [1] is reported as −0.6%; in the test with E. coli W1485 [2] (1 mg/L antibiotic), 4.7%; in the test on E. coli W1485 [2] (10 mg/L antibiotic) it was 3.4%; with E. coli W1485 [2] (30 mg/L antibiotic), 3.5%; with E. coli W1485 [3] (0.1 mg/L antibiotic, FIG. 24A), 2.6%. Further, the “frequency after antibiotic addition” value in the test on E. coli W1485 [1] (30 mg/L) was 320 Hz. Moreover, the “reduction of binding” value with E. coli W1485 [1] (30 mg/L) was 91%; in the test with E. coli W1485 [1] (30 mg/L, listed as Ciprofloxacin), 91%. The figures for the “relaxation time τ” value with E. coli W1485 [2] (setting [4]), in the test on E. coli W1485 [2] (setting [5]) and in the test on E. coli W1485 [2] (setting [6]) were 21 min, 23.5 min and 23.6 min, respectively. Also, the “most effective concentration to act against this bacterial strain” value in the test with E. coli W1485 [2] (no big change in ΔF from 10 to 30 mg/L) was 10 mg/L. Also, the “Previously Reported Minimum Inhibitory Concentration (MIC, mg/L)” value in the test on E. coli was 0.0075 to 0.015 mg/L.
